Laboratory results: patent US8809342B2, “Glucagon receptor modulators” (Pfizer Inc., priority 2010, dated 2014)

Molecular target: T1, human glucagon receptor (Homo sapiens, UniProt P47871)
T1 construct: expressed in transfected cells; host or cells: CHO-K1 cells, stably transfected
Test: Glucagon cAMP assay (Cisbio cAMP detection); also: 100 pM glucagon challenge
Assay type: cell-based

T1 sequence (P47871 26-477): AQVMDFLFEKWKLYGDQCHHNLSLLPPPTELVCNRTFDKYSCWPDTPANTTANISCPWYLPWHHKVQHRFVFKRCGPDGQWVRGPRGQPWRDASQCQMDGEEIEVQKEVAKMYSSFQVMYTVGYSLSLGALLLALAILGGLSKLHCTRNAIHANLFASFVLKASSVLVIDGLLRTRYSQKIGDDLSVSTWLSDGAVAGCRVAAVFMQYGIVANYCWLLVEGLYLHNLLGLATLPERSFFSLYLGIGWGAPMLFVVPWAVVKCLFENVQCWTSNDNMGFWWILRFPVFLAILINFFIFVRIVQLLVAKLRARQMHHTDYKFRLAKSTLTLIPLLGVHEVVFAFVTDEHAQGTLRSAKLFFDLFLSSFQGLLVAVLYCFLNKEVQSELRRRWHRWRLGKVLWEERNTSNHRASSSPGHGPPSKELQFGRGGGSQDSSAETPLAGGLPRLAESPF

| Kb [nM] | Compound |
| --- | --- |
| 700 | O=C(O)CCNC(=O)c1ccc(NC(CCC(F)(F)F)c2ccc(-c3ccc(C(F)(F)F)cc3)cc2)nc1 (racemic) [Example 4.13, (+/−)-3-(6-(4,4,4-trifluoro-1-(4′-(trifluoromethyl)biphenyl-4-yl)butylamino)nicotinamido)propanoic acid] |
| 110 | CC(C)CC(Nc1ccc(C(=O)NCCC(=O)O)cn1)c1ccc(-c2cccc(Cl)c2)cc1 (racemic) [Example 1.39, (+/−)-3-(6-(1-(3′-chlorobiphenyl-4-yl)-3-methylbutylamino)nicotinamido)propanoic acid] |
| 540 | CCCC(Nc1cnc(C(=O)NCCC(=O)O)cn1)c1ccc(-c2ccc(C(F)(F)F)cc2)cc1 (racemic) [Example 1.30, (+/−)-3-(5-(1-(4′-(trifluoromethyl)biphenyl-4-yl)butylamino)pyrazine-2-carboxamido)propanoic acid] |
| 180 | CC(C)C(Nc1ccc(C(=O)NCCC(=O)O)cn1)c1ccc(-c2ccc(C(F)(F)F)cc2)cc1 (racemic) [Example 1.10, (+/−)-3-(6-(2-methyl-1-(4′-(trifluoromethyl)biphenyl-4-yl)propylamino)nicotinamido)propanoic acid] |
| 540 | CCC(Nc1cnc(C(=O)NCCC(=O)O)cn1)c1ccc(-c2ccc(C(F)(F)F)cc2)cc1 (racemic) [Example 1.31, (+/−)-3-(5-(1-(4′-(trifluoromethyl)biphenyl-4-yl)propylamino)pyrazine-2-carboxamido)propanoic acid] |
| 120 | CC(C)CC(Nc1cnc(C(=O)NCCC(=O)O)cn1)c1ccc(-c2ccc(C(F)(F)F)cc2)cc1 (single isomer, unassigned; isomer 2) [Example 1.18, 3-(5-(3-methyl-1-(4′-(trifluoromethyl)biphenyl-4-yl)butylamino)pyrazine-2-carboxamido)propanoic acid, Isomer 2] |
| 340 | CCCC(Nc1ncc(C(=O)NCCC(=O)O)cn1)c1ccc(-c2ccc(C(F)(F)F)cc2)cc1 (stereo not drawn) [Example 4.17, 3-(2-(1-(4′-(trifluoromethyl)biphenyl-4-yl)butylamino)pyrimidine-5-carboxamido)propanoic acid] |
| 820 | CCCC(Nc1cnc(-c2ccc(C(F)(F)F)cc2)c(C)c1)c1ccc(C(=O)NCCC(=O)O)cn1 (racemic) [Example 2.9, (+/−)-3-(6-(1-(5-methyl-6-(4-(trifluoromethyl)phenyl)pyridin-3-ylamino)butyl)nicotinamido)propanoic acid] |
| 1700 | CC(Nc1ccc(-c2ccc(C(F)(F)F)cc2)cc1)c1ccc(C(=O)NCCC(=O)O)cn1 (racemic) [Example 2.10, (+/−)-3-(6-(1-(4′-(trifluoromethyl)biphenyl-4-ylamino)ethyl)nicotinamido)propanoic acid] |
| 200 | CCCC(Nc1ccc(C(=O)NCCC(=O)O)cn1)c1ccc(-c2ccc(C(F)(F)F)cc2)c(C#N)c1 (racemic) [Example 4.8, (±)-3-(6-((1-(2-cyano-4′-(trifluoromethyl)-[1,1′-biphenyl]-4-yl)butyl)amino)nicotinamido)propanoic acid] |
| 61 | CC(C)C[C@@H](Nc1ccc(C(=O)NCCC(=O)O)cn1)c1ccc(-c2ccc(C(F)(F)F)cc2)nc1 (single isomer, unassigned; isomer 1) [Example 4.20, 3-(6-(3-methyl-1-(6-(4-(trifluoromethyl)phenyl)pyridin-3-yl)butylamino)nicotinamido)propanoic acid, Isomer 1] |
| 1700 | CC(C)C[C@@H](Nc1ccc(C(=O)NCCC(=O)O)cn1)c1ccc(-c2ccc(C(F)(F)F)cc2)cc1 [Example 1.1, (R)-3-(6-(3-methyl-1-(4′-(trifluoromethyl)biphenyl-4-yl)butylamino)nicotinamido)propanoic acid] |
| 300 | CC(C)CC(Nc1ccc(C(=O)N(C)CCC(=O)O)cn1)c1ccc(-c2ccc(C(F)(F)F)cc2)cc1 (racemic) [Example 1.23, (+/−)-3-(N-methyl-6-(3-methyl-1-(4′-(trifluoromethyl)biphenyl-4-yl)butylamino)nicotinamido)propanoic acid] |
| 280 | COC1CC(C(Nc2ccc(C(=O)NCCC(=O)O)cn2)c2ccc(-c3ccc(C(F)(F)F)cc3)cc2)C1 (stereo not drawn) [Example 4.33, 3-(6-((3-methoxycyclobutyl)(4′-(trifluoromethyl)biphenyl-4-yl)methylamino)nicotinamido)propanoic acid] |
| 1000 | CC(C)CC(Nc1ccc(C(=O)Nc2nn[nH]n2)cn1)c1ccc(-c2ccc(C(F)(F)F)cc2)cc1 (racemic) [Example 1.20] |
